System: 171881-019-R-J1-PDC tumor spheroids, viability
Test: Anticancer human tumor 171881-019-R-J1-PDC patient-derived invasive breast carcinoma cell line growth inhibition [GQUAD]
Conditions: spheroids with HUVEC and MSC; for IC50: curve of first compound; for viability, T/C: stronger effect = lower value
From the text: DNA G-quadruplex Stabilizer Agents in Combinations in Complex Spheroids
A high-throughput screen of multi-cell type tumor spheroids was designed to identify active combinations of DNA G-quadruplex stabilizer agents and targeted small molecules. Complex spheroids include a stromal component modeled by human endothelial cells (HUVEC) and fibroblasts modeled by human mesenchymal stem cells (MSCs). The concentration ranges selected for each drug and investigational agent were based upon clinically achievable concentrations if the clinical Cmax of the agent was known.
Compounds. The drugs and investigational agents: pidnarulex (CX-5461; NSC782164), APTO-253 (NSC789042), BRACO-19 (NSC847499), peposertib (NSC802822), ceralasertib (NSC780249), elimusertib (NSC800525), camonsertib (NSC841442), AZD-1390 (NSC803789), olaparib (NSC753686), talazoparib (NSC767125), ART-558 (NSC835418), sotorasib (NSC818433), MRTX-1133 (NSC836407), SN-38 (NSC673596), topotecan (NSC609699), etoposide (NSC141540), doxorubicin (NSC123127), gemcitabine (NSC613327), 5-fluorouracil (NSC19893), paclitaxel (NSC125973), vemurafenib (NSC761431), panobinostat (NSC761190), R-306465 (JNJ-16241199; NSC773264), adavosertib (NSC754352), TP-3654 (NSC805149), carboplatin (NSC241240), KSQ-4279 (NSC840948), and staurosporine (NSC755774) were obtained from the National Cancer Institute (NCI) Developmental Therapeutics Program Chemical Repository (34). The FDA-approved anticancer drug set is available from the NCI Developmental Therapeutics Program. […] The stock solutions were prepared in dimethyl sulfoxide (DMSO, Sigma-Aldrich, St. Louis, MO, cat. D2650) at 800-fold the tested concentration and stored at -70 degrees C prior to their use. All drugs and investigational agents were tested over a range starting from a high concentration at or near the clinical Cmax and decreasing in half-log increments. If the clinical Cmax for an agent had not been determined, the highest concentration tested was 10 microM.
2.3 Cell Culture. All cells were maintained in an incubator at 37 degrees C and 5% CO2 with 95% humidity. The PDC lines were cultured according to standard operating procedures established by the NCI PDMR. All PDCs were thawed and cultured in Matrigel-coated flasks prepared with a working solution of 1X Ham's F-12 nutrient mix, without supplementation (Invitrogen, cat. 11765054), 100 U/mL penicillin-streptomycin (Invitrogen, cat. 15140122), and 2.5% Matrigel (Corning Inc., cat. 354248) for the first three passages. The 857933-349-R-J2-PDC line was cultured in 6C/Colon 1B media, which includes advanced DMEM/F-12 (Thermo Fisher Scientific, cat. 12634028), 10 mM HEPES (Thermo Fisher Scientific, cat. 15630080), 1X GlutaMAX supplement (Thermo Fisher Scientific, cat. 35050061), 0.1 mg/mL primocin (InvivoGen, cat. ant-pm-2), 10% defined fetal bovine serum, heat inactivated (HyClone Laboratories Inc., cat. SH30070.03HI), 50% L-WRN conditioned media (ATCC, cat. CRL-3276), 1.25 mM N-Acetyl-L-cysteine (Sigma-Aldrich, cat. A9165), 10 mM nicotinamide (Sigma-Aldrich, cat. N0636), 1X B-27 supplement (Thermo Fisher Scientific, cat. 17504044), 1X N-2 supplement (Thermo Fisher Scientific, cat. 17502048), 10 microM Y-27632 dihydrochloride (Tocris Bioscience, cat. 1254), and 50 ng/mL human EGF recombinant protein (Thermo Fisher Scientific, cat. PHG0311). The 485176-168-R4-J1-PDC line was cultured in Panc media, which includes all 6C/Colon 1B media components plus 100 ng/mL human FGF-10 (Thermo Fisher Scientific, cat. 100-26), 500 nM SB-431542 (Selleckchem, cat. S1067), and gastrin (Tocris, cat. 3006).
[…]

[1] = second compound 0.0316 µM, first compound 0.0316 µM
[2] = second compound 0.0316 µM, first compound 0.316 µM
[3] = second compound 0.1 µM, first compound 0.0316 µM
[4] = second compound 0.1 µM, first compound 0.316 µM
[5] = second compound 0.316 µM, first compound 0.0316 µM
[6] = second compound 0.316 µM, first compound 0.316 µM
[7] = second compound 1 µM, first compound 0.0316 µM
[8] = second compound 1 µM, first compound 0.316 µM
[9] = second compound 3.16 µM, first compound 0.0316 µM
[10] = second compound 3.16 µM, first compound 0.316 µM
[11] = second compound 10 µM, first compound 0.0316 µM
[12] = second compound 10 µM, first compound 0.316 µM
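Also: spheroids exposed to compounds for 7 days.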
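For viability, T/C in this document: 100% = DMSO vehicle control viability.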

## CCc1c2c(nc3ccc(O)cc13)-c1cc3c(c(=O)n1C2)COC(=O)[C@]3(O)CC + CN(C)c1ccc(Nc2c3ccc(NC(=O)CCN4CCCC4)cc3nc3cc(NC(=O)CCN4CCCC4)ccc23)cc1
Second compound 0.0316 µM
  IC50: 8 nM
Second compound 0.1 µM
  IC50: 7.74 nM
Second compound 0.316 µM
  IC50: 4.32 nM
Second compound 1 µM
  IC50: < 0.999 nM
Second compound 3.16 µM
  IC50: < 0.999 nM
Second compound 10 µM
  IC50: < 0.999 nM
Second compound 0.0316 µM, first compound 0.000999 µM
  viability, T/C: 91.8%
Second compound 0.0316 µM, first compound 0.00316 µM
  viability, T/C: 56.5%
Second compound 0.0316 µM, first compound 0.00999 µM
  viability, T/C: 49.2%
[1]
  viability, T/C: 42.3%
Second compound 0.0316 µM, first compound 0.0999 µM
  viability, T/C: 33.4%
[2]
  viability, T/C: 24.8%
Second compound 0.1 µM, first compound 0.000999 µM
  viability, T/C: 94.9%
Second compound 0.1 µM, first compound 0.00316 µM
  viability, T/C: 55.6%
Second compound 0.1 µM, first compound 0.00999 µM
  viability, T/C: 50.2%
[3]
  viability, T/C: 43.8%
Second compound 0.1 µM, first compound 0.0999 µM
  viability, T/C: 32.4%
[4]
  viability, T/C: 27.4%
Second compound 0.316 µM, first compound 0.000999 µM
  viability, T/C: 77.1%
Second compound 0.316 µM, first compound 0.00316 µM
  viability, T/C: 51.1%
Second compound 0.316 µM, first compound 0.00999 µM
  viability, T/C: 42.2%
[5]
  viability, T/C: 30.9%
Second compound 0.316 µM, first compound 0.0999 µM
  viability, T/C: 30.3%
[6]
  viability, T/C: 22%
Second compound 1 µM, first compound 0.000999 µM
  viability, T/C: 16.3%
Second compound 1 µM, first compound 0.00316 µM
  viability, T/C: 12.6%
Second compound 1 µM, first compound 0.00999 µM
  viability, T/C: 17%
[7]
  viability, T/C: 11%
Second compound 1 µM, first compound 0.0999 µM
  viability, T/C: 7.94%
[8]
  viability, T/C: 6.83%
Second compound 3.16 µM, first compound 0.000999 µM
  viability, T/C: 2.04%
Second compound 3.16 µM, first compound 0.00316 µM
  viability, T/C: 1.12%
Second compound 3.16 µM, first compound 0.00999 µM
  viability, T/C: 2.08%
[9]
  viability, T/C: 1.29%
Second compound 3.16 µM, first compound 0.0999 µM
  viability, T/C: 1.67%
[10]
  viability, T/C: 1.67%
Second compound 10 µM, first compound 0.000999 µM
  viability, T/C: 0.56%
Second compound 10 µM, first compound 0.00316 µM
  viability, T/C: 0.37%
Second compound 10 µM, first compound 0.00999 µM
  viability, T/C: 0.38%
[11]
  viability, T/C: 0.48%
Second compound 10 µM, first compound 0.0999 µM
  viability, T/C: 0.49%
[12]
  viability, T/C: 0.16%

## Cc1cccc(N(C)C(=O)C2C(O)CCN2c2nc(C)cc(C(F)(F)F)c2C#N)c1 (centres undefined) + CN(C)c1ccc(Nc2c3ccc(NC(=O)CCN4CCCC4)cc3nc3cc(NC(=O)CCN4CCCC4)ccc23)cc1
Second compound 0.0316 µM
  IC50: > 10000 nM
Second compound 0.1 µM
  IC50: > 10000 nM
Second compound 0.316 µM
  IC50: 7840 nM
Second compound 1 µM
  IC50: < 31.6 nM
Second compound 3.16 µM
  IC50: < 31.6 nM
Second compound 10 µM
  IC50: < 31.6 nM
[1]
  viability, T/C: 87.6%
Second compound 0.0316 µM, first compound 0.1 µM
  viability, T/C: 91.2%
[2]
  viability, T/C: 103%
Second compound 0.0316 µM, first compound 1 µM
  viability, T/C: 101%
Second compound 0.0316 µM, first compound 3.16 µM
  viability, T/C: 87.6%
Second compound 0.0316 µM, first compound 10 µM
  viability, T/C: 79.2%
[3]
  viability, T/C: 99.2%
Second compound 0.1 µM, first compound 0.1 µM
  viability, T/C: 102%
[4]
  viability, T/C: 96.4%
Second compound 0.1 µM, first compound 1 µM
  viability, T/C: 105%
Second compound 0.1 µM, first compound 3.16 µM
  viability, T/C: 85.6%
Second compound 0.1 µM, first compound 10 µM
  viability, T/C: 75.2%
[5]
  viability, T/C: 88.3%
Second compound 0.316 µM, first compound 0.1 µM
  viability, T/C: 93.5%
[6]
  viability, T/C: 85.2%
Second compound 0.316 µM, first compound 1 µM
  viability, T/C: 75.1%
Second compound 0.316 µM, first compound 3.16 µM
  viability, T/C: 75.7%
Second compound 0.316 µM, first compound 10 µM
  viability, T/C: 43.3%
[7]
  viability, T/C: 26.3%
Second compound 1 µM, first compound 0.1 µM
  viability, T/C: 23.1%
[8]
  viability, T/C: 31.7%
Second compound 1 µM, first compound 1 µM
  viability, T/C: 23.1%
Second compound 1 µM, first compound 3.16 µM
  viability, T/C: 19.1%
Second compound 1 µM, first compound 10 µM
  viability, T/C: 9.15%
[9]
  viability, T/C: 1.62%
Second compound 3.16 µM, first compound 0.1 µM
  viability, T/C: 1.75%
[10]
  viability, T/C: 1.5%
Second compound 3.16 µM, first compound 1 µM
  viability, T/C: 1.54%
Second compound 3.16 µM, first compound 3.16 µM
  viability, T/C: 1.07%
Second compound 3.16 µM, first compound 10 µM
  viability, T/C: 1.26%
[11]
  viability, T/C: 0.45%
Second compound 10 µM, first compound 0.1 µM
  viability, T/C: 0.54%
[12]
  viability, T/C: 0.26%
Second compound 10 µM, first compound 1 µM
  viability, T/C: 0.48%
Second compound 10 µM, first compound 3.16 µM
  viability, T/C: 0.65%
Second compound 10 µM, first compound 10 µM
  viability, T/C: 0.44%

— PubChem BioAssay AID2060498 (Molecular Pharmacology Branch, DTP, NCI, 2025)
